According to patent US9446015B2, “Quinone based nitric oxide donating compounds for ophthalmic use” (NICOX SCIENCE IRELAND, priority 2012, dated 2016):

Tests used:
[1] = test system: ocular normotensive New Zealand rabbits; assay: IOP lowering activity in ocular normotensive New Zealand rabbits; assay type: in vivo, New Zealand White rabbits
Protocol: Intraocular pressure (IOP) lowering activity in ocular normotensive New Zealand rabbits.
• compound (6) • timolol that is a drug commonly used for the treatment of glaucoma and ocular hypertension. • Isosorbide mononitrate (5-ISMN) that is a commonly used nitric oxide donor drug.
(§1) Timolol, dorzolamide and 5-ISMN were tested as reference compounds. Adults male New Zealand White rabbits weighting 1.8-2.0 Kg were used in the experiments.
IOP was measured using a pneumatonometer 30 CLASSIC™ before topical application (basal) and a different time point (30, 60, 120, 240 and 300 min) thereafter. Vehicle (5% cremophor-EL; 0.3% DMSO; 0.2 mg/ml BAK in PBS pH 6.0) or tested compounds dissolved in the vehicle were instilled as eye drops into the conjunctiva pocket. Eyes were randomly assigned to different treatment groups. One drop of 0.4% oxybuprocaine hydrochloride (Novesine, Sandoz) was instilled in each eye immediately before each set of pressure measurements.
The test results are reported in Table 7, the ocular hypotensive activity is expressed as IOP changes at 30, 60, 120 and 300 minutes after topical administration versus vehicle and versus IOP at basal.

[2] = test system: hypertonic saline-induced IOP increase in rabbits; assay: IOP lowering activity in hypertonic saline-induced IOP increase in rabbits; assay type: in vivo, New Zealand White rabbits
Text: Intraocular pressure (IOP) lowering activity in hypertonic saline-induced IOP increase in rabbits.
This animal model of elevated IOP was used for assessing the intraocular pressure (IOP) lowering activities of some compounds of the invention, timolol, dorzolamide and 5-isosorbide mononitrate.
• compounds (6), (20) and (25) • timolol and dorzolamide that are drugs commonly used for the treatment of glaucoma and ocular hypertension. • Isosorbide mononitrate (5-ISMN) that is a commonly used nitric oxide donor drug.
as §1
IOP was measured using a Tono-Pen XL prior to hypertonic saline injection (basal) and at 30, 60, 120 and 240 min thereafter. Vehicle (5% cremophor-EL; 0.3% DMSO; 0.2 mg/ml BAK in PBS pH 6.0) and all the tested compounds dissolved in the vehicle were instilled as eye drops immediately after hypertonic saline injection. Eyes were randomly assigned to different treatment groups. Vehicle and the tested compounds were directly instilled into the conjunctiva pocket at the desired doses. One drop of 0.4% oxybuprocaine hydrochloride (Novesine, Sandoz) was instilled in each eye immediately before each set of pressure measurements.
Results are reported in Table 6, the ocular hypotensive activities of the tested compounds are expressed as IOP change at 60 and 120 minutes after topical administration versus vehicle and versus the basal IOP.

[3] = test system: rat L-NAME-induced hypertension; assay: Systolic blood pressure in rat L-NAME-induced hypertension, single oral dose; assay type: in vivo; settings: Comp. (6) 100 mg/kg oral; 3 hours
Protocol: To assess the in vivo NO-dependent activity, Compound (6) was evaluated for systolic blood pressure (SBP) reduction efficacy in a rat model of NO-deprivation induced by L-NAME and compared with 5-ISMN.
(§2) Fasted male SD rats (250-300 g, n=3-5 per group), obtained from Harlan Italy (Correzzana, Milan, Italy) were orally treated with tested compounds or vehicle (DMSO:Methocel 1% 2/98 v/v) in a total volume of 4 ml/kg by gavage. At each time point (1, 3, 6 and 24 h) animals were deeply anesthetized with Zoletil® 100 (3 mg/kg), given intramuscularly. Thereafter, a pressure catheter (Samba Sensors, Harvard Apparatus, UK) was introduced into the common carotid artery for central blood pressure measurement. Pressure transducer was connected to a personal computer, in order to allow real time monitor of the pressure tracing. After 10 minutes of basal recording, L-NAME (50 mg/kg) was administered intraperitoneally and the effect on SBP monitored. When the SBP stabilized (5 minutes without variations) the recording was stopped. To further confirm that functional activity was NO-dependent, at each time point blood ^15N-nitrite levels were measured following the procedure described in Example 12.

[4] = test system: endothelial-dependent vasodilation of rat aortas; assay: Endothelial dysfunction evaluation, vascular response to acetylcholine; assay type: cell-based; settings: 5-day treatment; 5-ISMN 30 mg/kg, Compound (6) 100 mg/kg
Protocol: Thoracic aortas from male New Zealand rabbits or male Sprague Dawley (SD) were used. The aortas were placed immediately in Krebs-HEPES buffer (pH 7.4; composition mM: NaCl 130.0, KCl 3.7, NaHCO3 14.9, KH2PO4 1.2, MgSO4.7H2O 1.2, Glucose 11.0, HEPES 10.0, CaCl2.2H2O 1.6). Connective tissue was removed and aortas were cut into ring segments (4-5 mm in length). Each ring was placed in a 5 mL tissue bath filled with Krebs-HEPES buffer (37° C.) aerated with 95% O2 and 5% CO2 and was attached to a force transducer (Grass FT03), connected to a BIOPAC MP150 System for measurement of the isometric tension. Preparations were allowed to equilibrate for 1 h at a resting tension of 2 g for rabbit aortas and 1 g for rat aortas with changes of the buffer every 15 min. Then the rings were stimulated by exposure to 90 mM KCl (3 times) with intervening washings.
Rat aorta. After equilibration, rat aortas were precontracted with KCl (90 mM) and, when the contraction was stable, a cumulative concentration-response curve to acetylcholine (ACh, 0.01-100 μM) was added. After washout, the rings were precontracted again with KCl (90 mM). When a steady-state level of contraction was obtained, a cumulative concentration-response curve to the tested compounds (0.01-100 μM) was obtained.
Data analysis. Results are given as mean±SEM. Vascular responses are expressed as percentage relaxation and plotted vs concentration. The sensitivity of isolated aorta to different vasodilators is expressed as the concentration that elicited 50% of the maximal responses (EC50). Responses are quantified in terms of EC50 and Emax (maximal vasodilating effect) values, obtained from the concentration-response curve by nonlinear curve fitting, using GraphPad software.
Endothelial-dependent vasodilation (vascular response to acetylcholine, ACh) was assessed following 5-day treatment with Compound (6) (100 mg/kg) or 5-ISMN (30 mg/kg). A relaxant response to ACh indicated the presence of a functional endothelium. The vascular response was performed as described in Example 6.

[5] = test system: rat L-NAME-induced hypertension; assay: In vivo tolerance evaluation, L-NAME-induced hypertension after 5-day oral treatment; settings: 5-ISMN 30 mg/kg, compound (6) 100 mg/kg
Protocol: as §2
To investigate whether the compound (6) induced nitrate tolerance, as observed for most of the drugs belonging to the nitrate class, the L-NAME-induced hypertension rat model described in Example 7 was performed following a repeated oral treatment. Rats were orally treated for 5 days with vehicle, compound (6) (100 mg/kg) or 5-ISMN (30 mg/kg). […] The experiments were performed at the peak effect (1 hour for 5-ISMN and 3 hours for Compound (6)), results are reported in Table 3.

[6] = 60 min after topical administration
[7] = 120 min after topical administration

Question: What does the source list for `COC1=C(OC)C(=O)C(CCCCCCCCCCO[N+](=O)[O-])=C(C)C1=O` [Compound (6), 10-(4,5-dimethoxy-2-methyl-3,6-dioxocyclohexa-1,4-dienyl)decyl nitrate]?
Answer: ΔΔ (mmHg), IOP change versus vehicle and versus IOP at basal ([1]; 30 min after topical administration): −1.8 ± 0.4 mmHg; ΔΔ (mmHg), IOP change versus vehicle and versus IOP at basal [1, 6]: −1.6 ± 0.3 mmHg; ΔΔ (mmHg), IOP change versus vehicle and versus IOP at basal [1, 7]: −1.3 ± 0.5 mmHg; ΔΔ (mmHg), IOP change versus vehicle and versus IOP at basal ([1]; 300 min after topical administration): −1.5 ± 0.4 mmHg; ΔΔ (mmHg), IOP change versus vehicle and versus basal IOP [2, 6]: −7.4 ± 2.7 mmHg; ΔΔ (mmHg), IOP change versus vehicle and versus basal IOP [2, 7]: −9.8 ± 2.0 mmHg; Delta vs basal (mmHg), systolic blood pressure [3]: 14 ± 3.8 mmHg; effect on endothelial-dependent vasorelaxation (response to ACh) [4]: did not modify endothelial-dependent vasorelaxation; efficacy in preventing L-NAME-induced hypertension after 5-day oral treatment [5]: counteracted L-NAME-induced hypertension
